Results: patent publication US7893299B2, “Interleukin-1 and tumor necrosis factor-αmodulators; syntheses of such modulators and methods of using such modulators” (Nereus Pharmaceuticals, Inc., priority 2005, dated 2011)
Where two headings read alike, the source gives them in different places.

Legend:
HS766T cells = experiment: apoptosis by PI FACS analysis, HS766T; type: cell-based, human; settings: combination treatment with Salinosporamide A, increased from 4%
Description: Novel diterpene inhibitors of NFκB derived from acanthoic acid (NPI-1342 (Formula IIB-a1) and NPI-1387; compound 24 under scheme 4 above) show measurable effects in human pancreatic cancer cell lines in vitro. Seven of the nine cell lines were moderately sensitive to apoptosis induced by death receptor ligand Tumor Necrosis Factor (TNF) related apoptosis-inducing ligand (TRAIL). […] Specific silencing of NFkB/p65 expression mimicked these effects. Furthermore, combination treatment of Salinosporamide A and either NPI-1342 or NPI-1387 led to induction of apoptosis as measured by PI FACS analysis. Specifically, levels of DNA fragmentation increased from 4% to 50% in HS766T cells and from 4% to 52% in Panc1 cells. The inhibitory effects of NPI-1342, NPI-1387 on NFκB were evaluated by Electromobility Shift Assays and confirmed by confocal microscopy.

IKKα = IKKα (Mus musculus, UniProt Q60680); type: cell-based; settings: LPS-stimulated RAW264.7; 1, 5, 10 and 20 μM
Method: (§1) Cells were treated with 1, 5, 10 and 20 μM of NPI-1387 for 1 hour and then stimulated with 10 ng/ml LPS for 10 or 30 min. To determine the phosphorylation of IRAK1, whole cell extracts were prepared in RIPA buffer [0.9% NaCl, 50 mM Tris-HCl (pH7.4), 1% Triton X-100, 1 mM EDTA, 0.25% Na-deoxycholic acid, 0.1% SDS, 1 mM Na3VO4, 1 mM NaF and protease inhibitors]. […] Following electro-transfer, the membranes were blocked in Blotto (5%, w/v) non-fat milk in 1×TBST [20 mM Tris, 0.8% (w/v) NaCl, pH 7.6, 0.1% (v/v) Tween 20]. Membranes were then incubated with primary antibodies against IRAK1 (Santa Cruz Biotechnology), total IκBα (Cell Signaling Technology), phospho-IκBα (Cell Signaling Technology) and Tubulin (Lab Vision) in Blotto for 2 hours. The membranes were washed in TBST and (where necessary) incubated with the HRP-conjugated secondary antibody in Blotto for 1 hour before washing extensively with TBST. HRP activity was visualized by utilizing either SuperSignal West Pico or Dura chemiluminescent detection systems (Pierce Biotechnology). […] The protein samples were separated by 10% NuPAGE MES precast gels (Invitrogen) and the extent of GST-IκBα phosphorylation was evaluated by western blotting using the antibody against phospho-IκBα (Cell Signaling Technology).

IRAK1 = type: cell-based; settings: LPS-stimulated RAW264.7; 1, 5, 10 and 20 μM
Method: as §1

HT-29 (Colon) = experiment: 48 hr cytotoxicity, HT-29; type: cell-based, human
Method: Human colon adenocarcinoma HT-29 (ATCC# HTB-38), prostate adenocarcinoma PC-3 (ATCC# CRL-1435), breast adenocarcinoma MDA-MB231 (ATCC# HTB-26), Multiple Myeloma RPMI 8226 (ATCC# CCL-155) and U266 (ATCC # TIB-196) cell lines and human normal fibroblast CCD-27sk (ATCC# CRL-1475) were all purchased from ATCC (Manassas, Va.). The cells were maintained in their respective ATCC recommended culture media at 37° C., 5% CO2 and 95% humidified air.
The cytotoxicity assays were performed by seeding individual cell lines at appropriate density in the 96 well flat-bottomed plates and allowed to attach for 24 hours at 37° C., 5% CO2 and 95% humidified air (RPMI 8226 and U266 cells were plated in 96 well plates on the day of compound addition). Serially diluted NPI-1387 was added in triplicate to cells at concentrations ranging from 160 nM to 20 μM. Final concentration of 0.25% (v/v) DMSO was used as the vehicle control. Cell viability was assessed 48 hours later by measuring the fluorescence of the reduction product of Resazurin by a Fusion microplate fluorometer (PerkinElmer) with λex=535 nm and λem=590 nm filters. The IC50 values (the drug concentration at which 50% of the maximal observed cytotoxicity is established) were calculated in XLFit 3.0 or XLFit 4.0 (ID Business Solutions Ltd) using a sigmoidal dose response model.

IκBα phosphorylation = experiment: phosphorylation of IκBα induced by Toll-like receptor ligands in RPMI 8226 cells; type: cell-based; settings: 13 μM
Method: One ml/well of 2×10^6/ml RPMI 8226 cells (#CCL-155C, American Type Culture Collection) were seeded in 6-well plate in LGM-3 medium and cultured for overnight at 37° C., 5% CO2 and 95% humidified air. Formula (IIB-A1) was added to RPMI 8226 cells at the final concentration of 13 μM for 1 hr. DMSO was used as a control. Cells were then stimulated with 50 ng/ml LPS, 2 μg/ml Lipoteichoic acid (LTA) and CpG DNA for various length of time. At the end of each period of stimulation, cells were harvested by centrifugation and cell pellets were washed once in ice-cold 1× Dulbecco's Phosphate buffered Saline (DPBS). To prepare samples for SDS-PAGE, cells were lysed in RIPA buffer (50 mM Tris-HCl, pH7.4, 0.9% NaCl, 1% Triton X-100, 0.25% Na-deoxycholate, 1 mM EDTA, 2 mM Na3VO4 and 1× protease inhibitors cocktail) for 15 min on ice. Cell lysates were cleared by centrifugation at 14,000 rpm, 4° C. for 10 min. Protein concentrations of cell lysates were determined by BCA protein assay kit prior to SDS-PAGE. Equal amount of proteins from various cell lysates were resolved on 10% NuPage MES precast gels and transferred to nitrocellulose membranes according to the manufacturer's instructions. […]

Chain of IKKα (Q60680 whole entry): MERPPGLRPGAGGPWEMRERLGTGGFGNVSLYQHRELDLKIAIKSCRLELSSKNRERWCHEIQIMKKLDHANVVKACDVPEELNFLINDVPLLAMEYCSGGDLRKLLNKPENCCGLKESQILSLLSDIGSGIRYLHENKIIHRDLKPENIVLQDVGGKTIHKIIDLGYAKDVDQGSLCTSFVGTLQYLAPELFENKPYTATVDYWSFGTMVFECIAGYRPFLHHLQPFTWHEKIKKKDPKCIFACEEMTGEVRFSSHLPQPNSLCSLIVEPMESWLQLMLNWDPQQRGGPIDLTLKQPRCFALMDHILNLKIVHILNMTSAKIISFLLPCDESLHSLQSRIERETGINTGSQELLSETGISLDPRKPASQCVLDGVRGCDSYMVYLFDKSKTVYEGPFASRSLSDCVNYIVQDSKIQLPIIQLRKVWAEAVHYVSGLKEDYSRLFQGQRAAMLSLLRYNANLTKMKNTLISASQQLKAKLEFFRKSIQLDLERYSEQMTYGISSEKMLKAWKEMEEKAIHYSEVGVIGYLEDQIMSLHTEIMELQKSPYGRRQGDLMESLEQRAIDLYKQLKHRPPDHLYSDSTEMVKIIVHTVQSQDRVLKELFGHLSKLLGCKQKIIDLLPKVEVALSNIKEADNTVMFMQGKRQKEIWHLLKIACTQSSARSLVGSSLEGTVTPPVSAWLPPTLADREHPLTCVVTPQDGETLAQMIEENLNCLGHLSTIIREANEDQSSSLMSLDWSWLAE

SMILES	levels of DNA fragmentation (HS766T cells)	kinase activity of IKKα (IKKα)	phosphorylation of IRAK1 (and its downstream target IκBα) (IRAK1)	IC50 (HT-29 (Colon))	IC50 (HT-29 (Colon); Homo sapiens, HT-29, 48 h)	phosphorylation of IκBα induced by Toll-like receptor ligands (LTA, CpG DNA) (IκBα phosphorylation)	phosphorylation of IκBα induced by Toll-like receptor ligands (LTA, CpG DNA) (IκBα phosphorylation; listed as formula (IIB-A1))
C=CC(=O)C1(C)CCCC2(C)C3=CCC(C)(C=C)C[C@@H]3CC[C@H]12 (stereo in doubt) [NPI-1387, 1-[(1S,4aS,7R)-1,4a,7-Trimethyl-7-vinyl-1,2,3,4,4a,6,7,8,8a,9,10,10a-dodecahydro-1-phenanthrenyl]-2-propen-1-one]	50%	reduces kinase activity of IKKα in a dose-dependent manner	inhibits the phosphorylation of IRAK1	13 ± 6 µM	14 ± 6 µM		
C=C[C@@]1(C)CCC=C2[C@H]1CC[C@@H]1[C@](C)(C(=O)NC3CCCCC3)CCC[C@@]21C [Formula (IIB-A1), N-Cyclohexylamide Derivative of TTL]						inhibits the phosphorylation of IκBα induced by Toll-like receptor ligands	inhibits the phosphorylation of IκBα induced by LTA and CpG DNA
